PMC6089501 (Journal of Medicinal Chemistry, 2018)
Converted amounts (≈) assume the structure as drawn. “And” between values parts separate entries of the source, which are not always exact repeats. Equal entries are not always repeated. Where two headings read alike, the source gives them in different places.

Assays:
M. tuberculosis H37Rv = assay: microbe, parasite or virus in culture; format: cell-based, Mycobacterium tuberculosis; settings: for MIC90: read-out: MIC (MIC90); for IC90: read-out: TB-IC90_OD GEOM_MEAN
[1] = for CL mouse MEAN: microsomes
Vero cells [2] = assay: cells; settings: Chlorocebus sabaeus, read-out: VERO IC50
Procedure: (§1) Compounds were solubilized in DMSO and assayed as a 10-point 3-fold serial dilution. Compounds were incubated with cells for 2 days at 37 °C, 5% CO2. CellTiter-Glo Reagent (Promega) was added and relative luminescent units (RLU) measured.

physchem [3] = assay: physchem
in vitro = settings: dog, MDCK-MDR1
physchem [4] = settings: aqueous with cosolvent or surfactant or cyclodextrin, kinetic from dmso stock
Vero cells [5] = settings: read-out: VERO IC50
Procedure: as §1

[6] = tested on: Madin Darby Canine Kidney (MDCK)
[7] = Mycobacterium tuberculosis, H37RV

Molecule | MIC90 (M. tuberculosis H37Rv; [7]) | Cli mouse ([1]; female, CD1, mouse, pH 7.4) | CL mouse MEAN ([1]; mouse) | IC50 (Vero cells [2]) | chromatographic logD (physchem [3]) | IC90 (M. tuberculosis H37Rv; [7]) | further results
NC(=O)c1sc(N2CCOCC2)cc1OCc1ccccc1 [Compound 48, 3-Benzyloxy-5-morpholinothiophene-2-carboxamide] | > 20 µM | 14 mL.min^–1.g^–1 | 14.31 mL/min/g | > 100 µM | 1.52 | – | –
NC(=O)c1sc(N2CCOCC2)cc1OCCc1ccc(F)cc1 [Compound 40] | 0.9 µM (≈ 0.315 µg/mL) | 13 mL.min^–1.g^–1 | – | > 100 µM | 1.85 | – | CL mouse MEAN ([1]; female, CD1, mouse, pH 7.4): 12.72 mL/min/g
NC(=O)c1sc(N2CCOCC2)cc1OCC(O)c1ccccc1 (centres unmarked) [Compound 51, 3-(2-Hydroxy-2-phenylethoxy)-5-morpholinothiophene-2-carboxamine] | > 20 µM | 3.8 mL.min^–1.g^–1 | 3.788 mL/min/g | > 100 µM | 1.12 | – | –
NC(=O)c1sc(N2CCOCC2)cc1OCCc1ccncc1 [Compound 43, 5-Morpholino-3-[2-(4-pyridyl)ethoxy]thiophene-2-carboxamide] | > 20 µM | 8 mL.min^–1.g^–1 | 8.013 mL/min/g | > 100 µM | 0.617 | – | –
NC(=O)c1sc(N2CCOCC2)cc1OCCN1CCOCC1 [Compound 47, 5-Morpholino-3-(2-morpholinoethoxy)thiophene-2-carboxamide] | > 20 µM | 0.9 mL.min^–1.g^–1 | 0.8847 mL/min/g | > 100 µM | 0.189 | – | –
C=C[C@H]1C[N@@]2CC[C@H]1C[C@@H]2[C@@H](O)c1ccnc2ccc(OC)cc12 [Quinidine, reference compound] | – | – | – | – | – | – | Papp B→A (in vitro): 89 ×10⁻⁶ cm/s
O=C(NCC(F)(F)F)c1sc(N2CCOCC2)cc1OCCc1ccccc1 [Compound 23, 5-Morpholino-3-phenethoxy-N-(2,2,2-trifluoroethyl)thiophene-2-carboxamide] | 3.4 µM (≈ 1.41 µg/mL) | 30 mL.min^–1.g^–1 | 30.19 mL/min/g | > 100 µM | 3.11 | 3.32 µM | solubility kinetic (physchem [4]): 67 µM (≈ 27.8 µg/mL)
COC(=O)c1sc(N2CCOCC2)cc1OCCc1ccccc1 [Compound 14, Methyl 5-Morpholino-3-(2-phenylethoxy)thiophene-2-carboxylate] | > 20 µM | 50 mL.min^–1.g^–1 | – | > 100 µM | – | – | –
COCCc1ccc(OCC(O)CNC(C)C)cc1 (centres unmarked) [Metoprolol, reference compound] | – | – | – | – | – | – | Papp A→B (in vitro): 55 ×10⁻⁶ cm/s; Papp B→A (in vitro): 40 ×10⁻⁶ cm/s
CCNC(=O)c1sc(N2CCOCC2)cc1OCCc1ccccc1 [Compound 22, N-Ethyl-5-morpholino-3-(2-phenylethoxy)thiophene-2-carboxamide] | 1.7 µM (≈ 0.613 µg/mL) | 50 mL.min^–1.g^–1 | 50 mL/min/g | 56 µM | – | 1.67 µM | IC50 (Vero cells [5]): 56 µM
CNC(=O)c1sc(N2CCOCC2)cc1OCCc1ccccc1 [Compound 21, N-Methyl-5-morpholino-3-(2-phenylethoxy)thiophene-2-carboxamide] | 0.12 µM (≈ 0.0416 µg/mL) | 36 mL.min^–1.g^–1 | 35.49 mL/min/g | 91 µM | 2.44 | 0.133 µM | MIC (M. tuberculosis H37Rv; Mycobacterium tuberculosis, H37RV, read-out: MIC WT): 0.08 µM (≈ 0.0277 µg/mL); IC50 (Vero cells [5]): 72.4 µM
NC(=O)c1nc(N2CCOCC2)ccc1OCCc1ccccc1 [Compound 57, 6-Morpholino-3-(2-phenylethoxy)pyridine-2-carboxamide] | 6.9 µM (≈ 2.26 µg/mL) | 2.3 mL.min^–1.g^–1 | 2.315 mL/min/g | > 100 µM | 1.61 | – | –
NC(=O)c1sc(N2CCOCC2=O)cc1OCCc1ccccc1 [Compound 29, 5-(3-Oxomorpholino)-3-phenethoxythiophene-2-carboxamide] | 15 µM (≈ 5.2 µg/mL) | 7 mL.min^–1.g^–1 | 6.629 mL/min/g | > 100 µM | – | 10 µM | drop in potency / activity (M. tuberculosis H37Rv): > 10 fold; solubility kinetic (physchem [4]): 79 µM (≈ 27.4 µg/mL)
COc1cccc(CCOc2cc(N3CCOCC3)sc2C(N)=O)c1 [Compound 41, 3-[2-(3-Methoxyphenyl)ethoxy]-5-morpholinothiophene-2-carboxamide] | 1.6 µM (≈ 0.58 µg/mL) | 10 mL.min^–1.g^–1 | 10.31 mL/min/g | 89 µM | 1.85 | – | –
COc1ccc(CCOc2cc(N3CCOCC3)sc2C(N)=O)cc1 [Compound 36, 3-[2-(4-Methoxyphenyl)ethoxy]-5-morpholinothiophene-2-carboxamide] | 0.63 µM (≈ 0.228 µg/mL) | 5.7 mL.min^–1.g^–1 | 5.742 mL/min/g | > 100 µM | 1.73 | 0.57 µM | –
NC(=O)c1sc(N2CCOCC2)cc1OCCc1ccccc1F [Compound 38] | 3.4 µM (≈ 1.19 µg/mL) | 25 mL.min^–1.g^–1 | – | 84 µM | 2.05 | 3.7 µM | IC50 (Vero cells [5]): 83.2 µM; CL mouse MEAN ([1]; female, CD1, mouse, pH 7.4): 25.22 mL/min/g
CNC(=O)c1sc(N2CC3CC2CO3)cc1OCCc1ccccc1 (centres unmarked) [Compound 30, 5-(2-Oxa-5-azabicyclo[2.2.1]heptan-5-yl)-N-methyl-3-phenethoxythiophene-2-carboxamide] | 3.8 µM (≈ 1.36 µg/mL) | 13 mL.min^–1.g^–1 | 12.51 mL/min/g | 72 µM | – | 3.64 µM | drop in potency / activity (M. tuberculosis H37Rv): > 5 fold; IC50 (Vero cells [5]): 69.2 µM
O=C(NO)c1sc(N2CCOCC2)cc1OCCc1ccccc1 [Compound 16, 5-Morpholino-3-(2-phenylethoxy)thiophene-2-carbohydroxamic Acid] | 3.5 µM (≈ 1.22 µg/mL) | 6 mL.min^–1.g^–1 | 6.073 mL/min/g | 58 µM | – | 3.32 µM | IC50 (Vero cells [5]): 58 µM
NC(=O)c1sccc1OCCc1ccccc1 [Compound 27, 3-(2-Phenylethoxy)thiophene-2-carboxamide] | > 20 µM | 26 mL.min^–1.g^–1 | 26 mL/min/g | > 100 µM | 2.05 | > 20 µM | –
NC(=O)c1ccc(N2CCOCC2)cc1OCCc1ccccc1 [Compound 54, 4-Morpholino-2-phenethoxybenzamide] | > 20 µM | 12 mL.min^–1.g^–1 | 12.21 mL/min/g | > 100 µM | 2.11 | – | –
N#Cc1ccc(CCOc2cc(N3CCOCC3)sc2C(N)=O)cc1 [Compound 44, 3-[2-(4-Cyanophenyl)ethoxy]-5-morpholino-thiophene-2-carboxamid] | 14 µM (≈ 5 µg/mL) | 4.8 mL.min^–1.g^–1 | 4.758 mL/min/g | > 100 µM | 1.56 | – | –
3-(2,2-Difluoro-2-phenylethoxy)-5-morpholinothiophene-2-carboxamide [Compound 50] | – | – | 19.1 mL/min/g | – | – | – | MIC (MIC90) (M. tuberculosis H37Rv): >20 (2) μM; IC50 (Vero cells [5]): 95 µM
NC(=O)c1sc(N2CCOCC2)cc1OCC1CCCO1 (centres unmarked) [Compound 45, 5-Morpholino-3-((tetrahydrofuran-2-yl)methoxy)thiophene-2-carboxamide] | > 20 µM | 4.3 mL.min^–1.g^–1 | 4.249 mL/min/g | > 100 µM | – | – | –
NC(=O)c1sc(N2CCOCC2)cc1OC1CCc2ccccc21 (centres unmarked) [Compound 53, 3-Indan-1-yloxy-5-morpholinothiophene-2-carboxamide] | > 20 µM | 1.4 mL.min^–1.g^–1 | 1.393 mL/min/g | > 100 µM | 1.15 | – | –
5-[2-Methoxyethyl(methyl)amino]-3-(2-phenylethoxy)thiophene-2-carboxamide [Compound 32] | – | – | 28.42 mL/min/g | – | – | – | MIC (MIC90) (M. tuberculosis H37Rv): >20 (3) μM; IC50 (Vero cells [5]): > 100 µM
NC(=O)c1sc(N2CCOCC2)cc1CCCc1ccccc1 [Compound 49, 5-Morpholino-3-(3-phenylpropyl)thiophene-2-carboxamide] | 3.5 µM (≈ 1.16 µg/mL) | 20 mL.min^–1.g^–1 | 20.17 mL/min/g | 69 µM | – | – | –
COc1ccccc1CCOc1cc(N2CCOCC2)sc1C(N)=O [Compound 42, 3-[2-(2-Methoxyphenyl)ethoxy]-5-morpholinothiophene-2-carboxamide] | > 20 µM | 26 mL.min^–1.g^–1 | 26.42 mL/min/g | > 100 µM | 1.95 | – | –
NC(=O)c1cc(N2CCOCC2)ccc1OCCc1cccc(F)c1 [Compound 56, 2-[2-(3-Fluorophenyl)ethoxy]-5-morpholino-benzamide] | 2.8 µM (≈ 0.964 µg/mL) | 6.4 mL.min^–1.g^–1 | 6.406 mL/min/g | > 100 µM | – | – | P-glycoprotein (P-gp) efflux (in words) ([6]; MDCK-MDR1): no likely P-glycoprotein (P-gp) efflux issues; permeability (in words) ([6]; MDCK-MDR1): good permeability; P-gp Efflux B→ A/A → B ([6]; dog, MDCK): 0.7; Papp A→B (in vitro): 51 ×10⁻⁶ cm/s; Papp B→A (in vitro): 37 ×10⁻⁶ cm/s
5-(3-Methylmorpholino)-3-phenethoxythiophene-2-carboxamide [Compound 31] | – | – | 11.19 mL/min/g | – | – | – | MIC (MIC90) (M. tuberculosis H37Rv): >20 (2) μM; IC50 (Vero cells [5]): 77 µM and 79.4 µM
NC(=O)c1sc(N2CCOCC2)cc1OC1CCCc2ccccc21 (centres unmarked) [Compound 52, 5-Morpholino-3-tetralin-1-yloxy-thiophene-2-carboxamide] | > 20 µM | 5.4 mL.min^–1.g^–1 | 5.383 mL/min/g | 56 µM | 2.22 | – | –
